{"source": "ChEMBL document CHEMBL1130513", "about": "“New hepatoprotective saponins, bupleurosides III, VI, IX, and XIII, from Chinese Bupleuri Radix: Structure-requirements for the cytoprotective activity in primary cultured rat hepatocytes” (1997)", "assay_type_in_all_cases": "functional", "key": {"[1]": {"organism": "Rattus norvegicus", "assay": "In vitro inhibitory effect on D-Galactosamine induced cytotoxicity in primary cultured rat hepatocytes at 0.3 ug/mL", "conditions": "Hepatocyte"}, "[2]": {"organism": "Rattus norvegicus", "assay": "In vitro inhibitory effect on D-Galactosamine induced cytotoxicity in primary cultured rat hepatocytes at 30 ug/mL", "conditions": "Hepatocyte"}, "[3]": {"system": "Mus musculus", "assay": "Inhibitory effect on D-GalN/LPS (injected i.p. dose of 350 mg/kg and 10 ug/kg) induced hepatic injury in mice at 10 mg/kg, ip"}, "[4]": {"organism": "Rattus norvegicus", "assay": "In vitro inhibitory effect on D-Galactosamine induced cytotoxicity in primary cultured rat hepatocytes at 10 ug/mL", "conditions": "Hepatocyte"}, "[5]": {"organism": "Rattus norvegicus", "assay": "In vitro inhibitory effect on D-Galactosamine induced cytotoxicity in primary cultured rat hepatocytes at 1 ug/mL", "conditions": "Hepatocyte"}, "[6]": {"organism": "Rattus norvegicus", "assay": "In vitro inhibitory effect on D-Galactosamine induced cytotoxicity in primary cultured rat hepatocytes at 3 ug/mL", "conditions": "Hepatocyte"}, "[7]": {"system": "Mus musculus", "assay": "Inhibitory effect on D-GalN/LPS (injected i.p. dose of 350 mg/kg and 10 ug/kg) induced hepatic injury in mice at 20 mg/kg, ip"}}}
{"compound": "C[C@H]1O[C@@H](O[C@H]2CC[C@@]3(C)C(CC[C@]4(C)C3[C@H](O)CC3C5=CC(C)(C)CC[C@]5(CO)[C@@H](O)C[C@]34C)[C@]2(C)CO)[C@H](O)[C@@H](O[C@@H]2O[C@H](CO)[C@@H](O)[C@H](O)[C@H]2O)[C@H]1O", "note": "(stereo not given in full)", "values": [{"measurement": "inhibition at 0.3 µg/mL", "setting": "[1]", "result": 15.8, "unit": "%"}, {"measurement": "inhibition at 30 µg/mL", "setting": "[2]", "result": 64.7, "unit": "%"}, {"measurement": "s-GOT level", "setting": "[3]", "result": 1209, "unit": "Karmen units"}, {"measurement": "s-GPT level", "setting": "[3]", "result": 1265, "unit": "Karmen units"}, {"measurement": "inhibition at 10 µg/mL", "setting": "[4]", "result": 69.5, "unit": "%"}, {"measurement": "inhibition at 1 µg/mL", "setting": "[5]", "result": 39.7, "unit": "%"}, {"measurement": "inhibition at 3 µg/mL", "setting": "[6]", "result": 59.4, "unit": "%"}]}
{"compound": "C[C@H]1O[C@@H](O[C@H]2CC[C@@]3(C)C(CC[C@]4(C)C3[C@H](O)C=C3C5CC(C)(C)CC[C@]5(CO)[C@@H](O)C[C@]34C)[C@]2(C)CO)[C@H](O)[C@@H](O[C@@H]2O[C@H](CO)[C@@H](O)[C@H](O)[C@H]2O)[C@H]1O", "note": "(stereo not given in full)", "values": [{"measurement": "inhibition at 0.3 µg/mL", "setting": "[1]", "result": 6.8, "unit": "%"}, {"measurement": "inhibition at 30 µg/mL", "setting": "[2]", "result": 46.5, "unit": "%"}, {"measurement": "s-GOT level", "setting": "[3]", "result": 1261, "unit": "Karmen units"}, {"measurement": "s-GPT level", "setting": "[3]", "result": 1483, "unit": "Karmen units"}, {"measurement": "inhibition at 10 µg/mL", "setting": "[4]", "result": 43.1, "unit": "%"}, {"measurement": "inhibition at 1 µg/mL", "setting": "[5]", "result": 16.7, "unit": "%"}, {"measurement": "inhibition at 3 µg/mL", "setting": "[6]", "result": 35.6, "unit": "%"}]}
{"compound": "C[C@H]1O[C@@H](O[C@H]2CC[C@@]3(C)C(CC[C@]4(C)C3C(=O)C=C3C5CC(C)(C)CC[C@]5(CO)[C@@H](O)C[C@]34C)[C@]2(C)CO)[C@H](O)[C@@H](O[C@@H]2O[C@H](CO)[C@@H](O)[C@H](O)[C@H]2O)[C@H]1O", "note": "(stereo not given in full)", "values": [{"measurement": "inhibition at 0.3 µg/mL", "setting": "[1]", "result": 5.5, "unit": "%"}, {"measurement": "s-GOT level", "setting": "[7]", "result": 1404, "unit": "Karmen units"}, {"measurement": "s-GPT level", "setting": "[7]", "result": 1530, "unit": "Karmen units"}, {"measurement": "inhibition at 30 µg/mL", "setting": "[2]", "result": 90.9, "unit": "%"}, {"measurement": "s-GOT level", "setting": "[3]", "result": 7211, "unit": "Karmen units"}, {"measurement": "s-GPT level", "setting": "[3]", "result": 7887, "unit": "Karmen units"}, {"measurement": "inhibition at 10 µg/mL", "setting": "[4]", "result": 72.8, "unit": "%"}, {"measurement": "inhibition at 1 µg/mL", "setting": "[5]", "result": 16.9, "unit": "%"}, {"measurement": "inhibition at 3 µg/mL", "setting": "[6]", "result": 44.5, "unit": "%"}]}
{"compound": "C[C@]12CCC(=O)C=C1CCC1[C@@H]2[C@@H](O)C[C@@]2(C)[C@H]1CC[C@]2(O)C(=O)CO", "note": "(single isomer, unassigned) [HYDROCORTISONE]", "values": [{"measurement": "s-GOT level", "setting": "[7]", "result": 331, "unit": "Karmen units"}, {"measurement": "s-GPT level", "setting": "[7]", "result": 202, "unit": "Karmen units"}]}
